Experimental data: patent publication US4431638A, “Poly-cation salts of bis(or tris)[4-0-monohexose-thio]-arylene sulfate derivatives” (American Cyanamid Company, priority 1982, dated 1984)
Like-named read-outs stand apart in the source and are kept apart here. Values belong to the compound of their own block, whether it stands above or below them.

Key:
[1] = tested on: total hemolytic complement activity; settings: both in vitro and in vivo; cited from earlier work
activated human C1 = activated human C1 (Homo sapiens, UniProt P09871); assay: Test Code 026 (C1 inhibitor); assay type: biochemical; settings: serial twofold dilution assay; higher well number indicates higher activity
Protocol: (§1) Percent inhibition is calculated by comparison with simultaneous controls.
(§2) *Tests identified by code herein. For a discussion of the tests, see
(§3) **Activity in wells, a serial dilution assay; higher well number indicate

[2] = tested on: late components of human complement (C3-C9); assay: Test Code 035 (C3-C9 inhibitor), lysis of EAC 142; assay type: biochemical; settings: serial twofold dilution assay; higher well number indicates higher activity
Protocol: as §1, §2, §3

[3] = tested on: complement activity of sera; assay: Guinea Pig Intraperitoneal Test (GPIP); assay type: in vivo; settings: 200 mg/kg i.p.; for inhibition at 200 mg/kg: Cavia porcellus, ip
Protocol: as §1

complement system = settings: Br. J. Exp. Pathol. 33: 327 (1952); cited from earlier work
[4] = tested on: hereditary angioneurotic edema; settings: known complement inhibitors, literature reports; cited from earlier work

Compound: pentosan-polysulfoester
- anticomplementary activity on human serum, judged by reduction in total hemolytic complement activity [1]: anticomplementary activity

Compound: O=C(Nc1ccc(S[C@@H]2O[C@H](COS(=O)(=O)O)[C@@H](OS(=O)(=O)O)[C@H](OS(=O)(=O)O)[C@H]2OS(=O)(=O)O)cc1)c1cc(C(=O)Nc2ccc(S[C@@H]3O[C@H](COS(=O)(=O)O)[C@@H](OS(=O)(=O)O)[C@H](OS(=O)(=O)O)[C@H]3OS(=O)(=O)O)cc2)cc(C(=O)Nc2ccc(S[C@@H]3O[C@H](COS(=O)(=O)O)[C@@H](OS(=O)(=O)O)[C@H](OS(=O)(=O)O)[C@H]3OS(=O)(=O)O)cc2)c1.[Na].[Na].[Na].[Na].[Na].[Na].[Na].[Na].[Na].[Na].[Na].[Na] [Dodecasodium N,N',N"-tris[4-[(2,3,4,6-tetra-O-sulfo-β-D-glucopyranosyl)thio]phenyl]-1,3,5-benzenetricarboxamide]
- In vitro Activity C-1 026 Wells (activated human C1): 4 Wells
- In vitro Activity C-Late 035 Wells [2]: 1 Wells

Compound: O=S(=O)(O)OC[C@H]1O[C@@H](Sc2ccc(NS(=O)(=O)c3cc(S(=O)(=O)Nc4ccc(S[C@@H]5O[C@H](COS(=O)(=O)O)[C@@H](OS(=O)(=O)O)[C@H](OS(=O)(=O)O)[C@H]5OS(=O)(=O)O)cc4)cc(S(=O)(=O)Nc4ccc(S[C@@H]5O[C@H](COS(=O)(=O)O)[C@@H](OS(=O)(=O)O)[C@H](OS(=O)(=O)O)[C@H]5OS(=O)(=O)O)cc4)c3)cc2)[C@H](OS(=O)(=O)O)[C@@H](OS(=O)(=O)O)[C@@H]1OS(=O)(=O)O.[Na].[Na].[Na].[Na].[Na].[Na].[Na].[Na].[Na].[Na].[Na].[Na] [Dodecasodium N,N',N"-tris[4-[(2,3,4,6-tetra-O-sulfo-β-D-glucopyranosyl)thio]phenyl]-1,3,5-benzenetrisulfonamide]
- In vitro Activity C-1 026 Wells (activated human C1): 10 Wells
- In vivo Activity (Guinea Pig % Inhibition) Intraperitoneal, 2 hours ([3]; serum complement 2 hours after injection): 93%
- In vivo Activity (Guinea Pig % Inhibition) Intraperitoneal, 6 hours ([3]; serum complement 6 hours after injection): 76%
- inhibition at 200 mg/kg ([3]; 2 h, serum complement 2 hours after injection, read-out: In vivo Activity (Guinea Pig % Inhibition) Intraperitoneal, 2 hours): 91%
- inhibition at 200 mg/kg ([3]; 6 h, serum complement 6 hours after injection, read-out: In vivo Activity (Guinea Pig % Inhibition) Intraperitoneal, 6 hours): 91%
- inhibition at 200 mg/kg ([3]; 24 h, serum complement 24 hours after injection, read-out: In vivo Activity (Guinea Pig % Inhibition) Intraperitoneal, 24 hours): 87%
- In vitro Activity C-Late 035 Wells [2]: 2 Wells

Compound: heparin
- anticomplementary effect (complement system): anticomplementary effect

Compound: NCCCCCC(=O)O [epsilon-aminocaproic acid]
- success in the treatment of hereditary angioneurotic edema [4]: used with success

Compound: O=C(Nc1ccc(S[C@@H]2O[C@H](COS(=O)(=O)O)[C@@H](OS(=O)(=O)O)[C@H](OS(=O)(=O)O)[C@H]2OS(=O)(=O)O)cc1)c1ccc(C(=O)Nc2ccc(S[C@@H]3O[C@H](COS(=O)(=O)O)[C@@H](OS(=O)(=O)O)[C@H](OS(=O)(=O)O)[C@H]3OS(=O)(=O)O)cc2)cc1.[Na].[Na].[Na].[Na].[Na].[Na].[Na].[Na] [Octasodium N,N'-bis[4-[(2,3,4,6-tetra-O-sulfo-β-D-glucopyranosyl)thio]phenyl]-1,4-benzenedicarboxamide]
- In vitro Activity C-1 026 Wells (activated human C1): 4 Wells
- In vitro Activity C-Late 035 Wells [2]: 1 Wells

- In vitro Activity C-1 026 Wells (activated human C1): 5 Wells
Compound: O=S(=O)(O)OC[C@H]1O[C@@H](Sc2ccc(NS(=O)(=O)c3ccc4c(S(=O)(=O)Nc5ccc(S[C@@H]6O[C@H](COS(=O)(=O)O)[C@@H](OS(=O)(=O)O)[C@H](OS(=O)(=O)O)[C@H]6OS(=O)(=O)O)cc5)cc(S(=O)(=O)Nc5ccc(S[C@@H]6O[C@H](COS(=O)(=O)O)[C@@H](OS(=O)(=O)O)[C@H](OS(=O)(=O)O)[C@H]6OS(=O)(=O)O)cc5)cc4c3)cc2)[C@H](OS(=O)(=O)O)[C@@H](OS(=O)(=O)O)[C@@H]1OS(=O)(=O)O [Dodecasodium N,N',N"-tris[4-[(2,3,4,6-tetra-O-sulfo-β-D-glucopyranosyl)thio]phenyl]-1,3,6-naphthylenetrisulfonamide]
- In vitro Activity C-Late 035 Wells [2]: 1 Wells

Compound: NC[C@H]1CC[C@H](C(=O)O)CC1 [tranexamic acid]
- success in the treatment of hereditary angioneurotic edema [4]: used with success

Compound: Nc1ccc2cc(S(=O)(=O)[O-])cc(O)c2c1N=Nc1ccc(NC(=O)Nc2ccc(N=Nc3c(N)ccc4cc(S(=O)(=O)[O-])cc(O)c34)c(S(=O)(=O)[O-])c2)cc1S(=O)(=O)[O-].[Na+].[Na+].[Na+].[Na+] [chlorazol fast pink, 3,3'-ureylenebis[6-(2-amino-8-hydroxy-6-sulfo-1-naphthylazo)benzenesulfonic acid], tetrasodium salt]
- anticomplementary effect (complement system): anticomplementary effect
